Patent US20250090603A1, “COMPOSITIONS CONTAINING BACILLAENE PRODUCING BACTERIA OR PREPARATIONS THEREOF” (Evonik Operations GmbH, priority 2019, published 2025)

How the values were obtained:
[1] = tested on: S. enterica subsp. enterica enteritidis DSM 14221; type: cell-based, Salmonella enterica
[2] = tested on: Vibrio parahaemolyticus DSM 10027; type: cell-based; conditions: concluded from experiments with knock-out mutants

Compound: C/C(=C/C=C/C=C/C(C)C(=O)O)NC(=O)CC(O)\C(C)=C/C=C\C=C(C)\C=C\C=C/C=C/CNC(=O)C(O)CC(C)C (centres unmarked) [bacillaene]
- inhibition of growth of Salmonella enterica (in words) [1]: effectively inhibit the growth
- inhibition of growth of Vibrio parahaemolyticus (in words) [2]: effectively inhibit the growth
